These results are taken from publication PMC12029309, “Synthesis and Antifungal Activity of 1,2,4-Oxadiazole Derivatives” (Molecules, 2025).

What all share (type): cell-based
One test concerns E. turcicum. The experiment in a line: Mycelial growth inhibition test in vitro (E. turcicum). To be noted: Exserohilum turcicum; 50 μg/mL, mean ± SD of three replicates; read-out: The Inhibition Rate (%) E. turcicum.
For the next test, the system named is R. solani. The experiment in a line: microbe, parasite or virus in culture. As to conditions: Rhizoctonia solani, read-out: The Inhibition Rate (%) R. solani.
A further test has as its system B. cinerea. The experiment in a line: Mycelial growth inhibition test in vitro (B. cinerea). To be noted: Botrytis cinerea; 50 μg/mL, mean ± SD of three replicates; read-out: The Inhibition Rate (%) B. cinerea. On the procedure: (§1) The antifungal activity of the target compound was tested by the mycelial growth inhibition rate method. The compounds were detected at a concentration of 50 μg/mL, and carbendazim was used as the positive control. The antifungal activity was carried out according to literature reports. After drilling the mycelium (3 mm), it was inoculated into the PDA medium containing compounds, and the Petri dish was put into the incubator at 25 °C for 12-48 h; then, the colony diameter was measured with 50 index vernier caliper by the cross method, and the data were recorded. […] • A: The average diameter of the blank medium colony. • B: Diameter of mushroom cake (3 mm). • C: The average diameter of the colonies in the medium containing compound.

A further test has as its system C. capsica. The test is described as follows: Mycelial growth inhibition test in vitro (C. capsica). To be noted: Colletotrichum; 50 μg/mL, mean ± SD of three replicates; read-out: The Inhibition Rate (%) C. capsica. On the procedure: as §1, with “compound. […] The PDA medium containing different concentrations of the compound was prepared by the two-fold dilution method, the final concentration of the compound in the medium was adjusted to 0-100.00 μg/mL, and three parallel samples were set for each concentration. […] The toxicity regression equation of the tested compound was obtained, taking the logarithm of compound concentration (lgc) as the independent variable (x) and the probability value of inhibition rate as the dependent variable (y), and the EC50 value of each tested compound was calculated.” for “compound.”

The test system of a further test is F. graminearum. The test is described as follows: microbe, parasite or virus in culture. To be noted: Fusarium graminearum; for inhibition at 50 µg/mL: read-out: The Inhibition Rate (%) F. graminearum.

In brackets after ≈: the same amount, converted by molar mass.

Take `Oc1cc(-c2nc(-c3ccccc3)no2)cc(O)c1O` [Compound 4g, 5-(3-Phenyl-1,2,4-oxadiazol-5-yl) benzene-1,2,3-triol]: the inhibition at 50 µg/mL is 38.7 ± 1% in the test with E. turcicum; 39.9 ± 3.44% with R. solani; less than 10% in the test with B. cinerea; 47.6 ± 1.05% in the test with C. capsica; 56.9 ± 6.74% in the test with F. graminearum. In the test with F. graminearum (read-out: EC50 (μg/mL) F. graminearum), the EC50 worked out at 80.5 µg/mL (≈ 298 µM).
In the case of `Clc1ccc(-c2nc(-c3ccccc3)no2)cc1` [Compound 4a, 5-(4-Chlorophenyl)-3-phenyl-1,2,4-oxadiazole], the inhibition at 50 µg/mL in the test with E. turcicum was 17.5 ± 2.68%; in the test with R. solani, less than 10%; with B. cinerea it was less than 10%; with F. graminearum, 19.1 ± 7.15%.
Take `COc1ccc(-c2noc(-c3ccc(Cl)cc3)n2)cc1OC` [Compound 4m, 5-(4-Chlorophenyl)-3-(3,4-dimethoxyphenyl)-1,2,4-oxadiazole]: the figures for the inhibition at 50 µg/mL in the test with E. turcicum, in the test on R. solani and in the test on F. graminearum were 15.2 ± 0.77%, 11.7 ± 5.11% and less than 10%, respectively.
Take `CC(C)(C)c1ccc(-c2nc(-c3ccccc3)no2)cc1` [Compound 4c, 5-(4-(tert-Butyl)phenyl)-3-phenyl-1,2,4-oxadiazole]: the inhibition at 50 µg/mL in the test on E. turcicum is 30.1 ± 1.95%; with R. solani, 10.7 ± 3.54%; with B. cinerea, less than 10%; in the test with C. capsica it was less than 10%; in the test with F. graminearum, 33.5 ± 3.88%.
Regarding `COc1cc(-c2noc(-c3ccc(Cl)cc3)n2)cc(OC)c1OC` [Compound 4s, 5-(4-Chlorophenyl)-3-(3,4,5-trimethoxyphenyl)-1,2,4-oxadiazole], the inhibition at 50 µg/mL with E. turcicum, in the test with R. solani, in the test with B. cinerea, with C. capsica and in the test with F. graminearum was less than 10% each time.
As for `COc1ccc(-c2nc(-c3ccc(OC)c(OC)c3)no2)cc1` [Compound 4w, 3-(3,4-Dimethoxyphenyl)-5-(4-methoxyphenyl)-1,2,4-oxadiazole], the inhibition at 50 µg/mL with E. turcicum, with R. solani, in the test on B. cinerea, with C. capsica and in the test on F. graminearum was less than 10% throughout.
Regarding `COc1ccc(-c2noc(-c3cccc(O)c3)n2)cc1OC` [Compound 4o, 3-(3-(3,4-Dimethoxyphenyl)-1,2,4-oxadiazol-5-yl)phenol], the inhibition at 50 µg/mL in the test on E. turcicum is 28.1 ± 1.65%; in the test with R. solani it was 24.4 ± 1.65%; in the test on B. cinerea it was less than 10%; in the test on C. capsica it was 20.8 ± 0.59%; in the test on F. graminearum it was 55.1 ± 2.99%.
As to `COc1cc(-c2noc(-c3cccc(O)c3)n2)cc(OC)c1OC` [Compound 4v, 3-(3-(3,4,5-Trimethoxyphenyl)-1,2,4-oxadiazol-5-yl) phenol], the inhibition at 50 µg/mL is 15.5 ± 3.53% in the test on E. turcicum; less than 10% with R. solani; less than 10% with B. cinerea; less than 10% with C. capsica; 26.1 ± 9.47% with F. graminearum.
As to `FC(F)(F)c1ccc(-c2nc(-c3ccccc3)no2)cc1` [Compound 4h, 3-Phenyl-5-(4-(trifluoromethyl)phenyl)-1,2,4-oxadiazole], the inhibition at 50 µg/mL with E. turcicum was less than 10%; in the test with R. solani it was less than 10%; in the test with B. cinerea, less than 10%; with C. capsica, less than 10%; with F. graminearum, 29 ± 8.54%.
Regarding `COc1ccc(-c2noc(/C=C/c3ccccc3)n2)cc1` [Compound 5d, (E)-3-(4-Methoxyphenyl)-5-styryl-1,2,4-oxadiazole], the inhibition at 50 µg/mL in the test with E. turcicum was 19.2 ± 2.39%; in the test on R. solani, less than 10%; in the test on B. cinerea, 21.7 ± 6.82%; in the test with F. graminearum, 19 ± 7.4%.
For `C(=C\c1nc(-c2ccccc2)no1)/c1ccccc1` [Compound 5a, (E)-3-Phenyl-5-styryl-1,2,4-oxadiazole] the same measures were 21.1 ± 3.85%, 14.5 ± 6.32%, less than 10% and less than 10%.
